Laboratory results from patent US20150250925A1, “[…] TISSUE, […] MODEL AND MANUFACTURING METHOD THEREFOR” (priority 2012, published 2015).

Assays:
Type in all cases: cell-based, human
[1] = test system: dermal tissue layer (without dendritic cells); experiment: Immune response evaluation: IL-6 ELISA after LPS addition, dermal tissue layer without dendritic cells; conditions: LPS 0, 1, 10, 100 or 1000 ng/ml, 24 hours; layer does not include dendritic cells; FIG. 3
Experimental: (§1) A dermal tissue layer including dendritic cells was prepared in the same manner as Example 1. The culture medium of the dermal tissue layer was changed to DMEM containing 10% FBS (the inside of the insert: 30 μl, the outside of the insert: 1 ml). Lipopolysaccharide (LPS, produced by Sigma-Aldrich Co. LLC.) was added to the inside of the insert and incubated for 24 hours. Then, all the culture medium in the outside of the insert was collected, and interleukin (IL)-6 was quantified by enzyme-linked immunosorbent assay (ELISA (R & D, D6056)). The concentration of the lipopolysaccharide was 0, 1, 10, 100, or 1000 ng/ml.
A dermal tissue layer (without dendritic cells) was prepared in the same manner as Example 1 except that “only the NHDF coated cells” were used instead of “a mixture of the NHDF coated cells and the MoDC coated cells”. Using the dermal tissue layer, an immune response was evaluated in the same manner as described above.
(§2) FIG. 3 is an example of a graph showing the relationship between the amount of LPS added and the amount of IL-6 produced from the dermal tissue layer.

[2] = test system: dermal tissue layer including dendritic cells; experiment: Immune response evaluation: IL-6 ELISA after LPS addition, dermal tissue layer including dendritic cells; conditions: 24 hours, FIG. 3
Experimental: as §1, §2

[3] = test system: artificial skin model including the epidermal layer; experiment: Immune response evaluation: IL-6 ELISA after LPS addition, artificial skin model of Example 4; conditions: LPS 0-1000 ng/ml, 24 hours, FIG. 4
Experimental: as §1
First, a dermal tissue layer was prepared in the same manner as Example 1 and immersed in a 50 mM Tris-HCl solution (pH=7.4) containing collagen IV for 20 minutes, so that the dermal tissue layer was coated with collagen W Then, 1.8×10^5 KC were seeded and cultured in an adherent culture medium for 2 days. Subsequently, the KC were exposed to the air-liquid interface of a keratinized medium (multi-layered medium) for 7 days to induce differentiation, and thus an artificial skin model was prepared.
Using the artificial skin model, an immune response was evaluated in the same manner as Reference Example 1. […] FIG. 4 is an example of a graph showing the relationship between the amount of LPS added and the amount of IL-6 produced from the dermal tissue layer. […]

[4] = test system: dermal tissue layer with NHDF, NHDMEC and MoDC; experiment: CLSM observation of dermal tissue layer of Reference Example 2 after LPS addition; conditions: 1 μg/ml LPS, 30 hours after addition; FIG. 5
Experimental: NHDF coated cells were seeded and cultured so that the NHDF were arranged in 4 layers. Then, NHDMEC (human dermal microvascular endothelial cells) coated cells were seeded and cultured on top of the NHDF layers so that the NHDMEC were arranged in 1 layer. Moreover, NHDF coated cells were seeded and cultured on the NHDMEC layer so that the NHDF were arranged in 4 layers. These layered cells were cultured in 2.3 ml of DMEM containing 10% FBS for 3 days. Subsequently, 5×10^4 MoDC were seeded and cultured in 2.3 ml of DMEM containing 10% FBS for 1 day. Thus, a dermal tissue layer was formed. The dermal tissue layer was placed in the insert, to which 1 μg/ml LPS was added. The dermal tissue layer was observed by a confocal laser scanning microscope for 30 hours.
FIG. 5 is an example of a confocal laser scanning microscope (CLSM) image taken 30 hours after the addition of the LPS. […] Although the details of this are not clear, it is known that the dendritic cells are transferred to the lymphatic vessels when they are activated by an antigen in a living body. […] Moreover, it has been reported that, in a living body, a CC chemokine receptor 7 is expressed in the activated dendritic cells, while CC chemokine ligands 21, 19, which are ligands of the CC chemokine receptor 7, are produced in the lymphatic vessels. […]

Lipopolysaccharide [LPS]
amount of IL-6 produced from the dermal tissue layer [1]: increases with an increase in the amount of LPS added
amount of IL-6 produced from the dermal tissue layer ([2]; LPS 0, 1, 10, 100 or 1000 ng/ml, layer includes dendritic cells): increases with an increase in the amount of LPS added
amount of IL-6 produced, layer with dendritic cells compared to layer without ([2]; LPS 0-1000 ng/ml): increases significantly
amount of IL-6 produced [3]: does not change with the amount of LPS added
overlap between dendritic cells and NHDMEC (CLSM image) [4]: state of overlap between the dendritic cells and the NHDMEC after the addition of the LPS is observed
